Assay results: PubChem BioAssay AID248 (DTP/NCI, 2004)
Several values for one entry are separate records, joined by “and”; a condition that tells them apart may be missing. Identical values can stand only once. Inconclusive results and toxic doses are left out.

System: L1210 leukemia ip in BDF1 mice, survival T/C
Assay: NCI In Vivo Anticancer Drug Screen. Data for tumor model L1210 Leukemia (intraperitoneal) in B6D2F1 (BDF1) mice
Settings: endpoint: mean survival time, higher = longer survival
Summary of the method: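 Value reflects the ratio of survival in compound-treated mice to survival in vehicle-treated controls, with both groups carrying the same transplanted tumor.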

[1] = dose: 100.0 mg/kg/injection, schedule: Q01DX001 (ip), vehicle: carboxymethylcellulose (CMC)
[2] = dose: 200.0 mg/kg/injection, schedule: Q01DX001 (ip), vehicle: carboxymethylcellulose (CMC)
[3] = dose: 400.0 mg/kg/injection, schedule: Q01DX001 (ip), vehicle: carboxymethylcellulose (CMC)
[4] = dose: 100.0 mg/kg/injection, schedule: Q04DX003 (ip), vehicle: Klucel (hydroxypropylcellulose) (HPC)
[5] = dose: 100.0 mg/kg/injection, schedule: Q01DX009 (ip), vehicle: Klucel (hydroxypropylcellulose) (HPC)
[6] = dose: 200.0 mg/kg/injection, schedule: Q01DX009 (ip), vehicle: Klucel (hydroxypropylcellulose) (HPC)
[7] = dose: 50.0 mg/kg/injection, schedule: Q01DX009 (ip), vehicle: Klucel (hydroxypropylcellulose) (HPC)

Structure (SMILES): CC(C)(C)c1ccccc1OC(=O)Nc1ccc(F)cc1
- T/C [1]: 98 % of control
- T/C (dose: 100.0 mg/kg/injection, schedule: Q01DX009 (ip), vehicle: carboxymethylcellulose (CMC)): 95 % of control and 97 % of control
- T/C (dose: 100.0 mg/kg/injection, schedule: Q04DX002 (ip), vehicle: carboxymethylcellulose (CMC)): 94 % of control and 96 % of control and 106 % of control
- T/C (dose: 100.0 mg/kg/injection, schedule: Q04DX003 (ip), vehicle: carboxymethylcellulose (CMC)): 97 % of control
- T/C [2]: 104 % of control
- T/C (dose: 200.0 mg/kg/injection, schedule: Q01DX009 (ip), vehicle: carboxymethylcellulose (CMC)): 105 % of control
- T/C (dose: 200.0 mg/kg/injection, schedule: Q04DX002 (ip), vehicle: carboxymethylcellulose (CMC)): 97 % of control and 98 % of control (2×)
- T/C (dose: 200.0 mg/kg/injection, schedule: Q04DX003 (ip), vehicle: carboxymethylcellulose (CMC)): 97 % of control
- T/C [3]: 101 % of control
- T/C (dose: 400.0 mg/kg/injection, schedule: Q01DX009 (ip), vehicle: carboxymethylcellulose (CMC)): 103 % of control
- T/C (dose: 400.0 mg/kg/injection, schedule: Q04DX002 (ip), vehicle: carboxymethylcellulose (CMC)): 92 % of control and 94 % of control and 98 % of control
- T/C (dose: 400.0 mg/kg/injection, schedule: Q04DX003 (ip), vehicle: carboxymethylcellulose (CMC)): 91 % of control

Structure (SMILES): CCOC(OCC)C(=O)OCC(=O)[C@]1(O)Cc2c(O)c3c(c(O)c2[C@@H](OC2CC(N)C(O)C(C)O2)C1)C(=O)c1c(OC)cccc1C3=O (some centres not stated)
- T/C (dose: 0.25 mg/kg/injection, schedule: Q01DX009 (ip), vehicle: saline): 118 % of control
- T/C (dose: 2.0 mg/kg/injection, schedule: Q01DX009 (ip), vehicle: saline): 182 % of control
- T/C (dose: 4.0 mg/kg/injection, schedule: Q01DX009 (ip), vehicle: saline): 90 % of control

Structure (SMILES): CCCCCCOC(=O)C(N)Cc1ccc(O)c(N(CCCl)CCCl)c1 (configuration not stated)
- T/C (dose: 0.01 mg/kg/injection, schedule: Q01DX009 (ip), vehicle: saline): 123 % of control
- T/C (dose: 0.12 mg/kg/injection, schedule: Q01DX001 (ip), vehicle: saline): 159 % of control
- T/C (dose: 0.3 mg/kg/injection, schedule: Q01DX009 (ip), vehicle: saline): 163 % of control
- T/C (dose: 0.5 mg/kg/injection, schedule: Q01DX001 (ip), vehicle: saline): 313 % of control
- T/C (dose: 0.6 mg/kg/injection, schedule: Q01DX009 (ip), vehicle: saline): 221 % of control
- T/C (dose: 1.0 mg/kg/injection, schedule: Q01DX001 (ip), vehicle: saline): 120 % of control
- T/C (dose: 1.1 mg/kg/injection, schedule: Q01DX009 (ip), vehicle: saline): 210 % of control
- T/C (dose: 2.2 mg/kg/injection, schedule: Q01DX001 (ip), vehicle: saline): 198 % of control
- T/C (dose: 2.5 mg/kg/injection, schedule: Q01DX001 (ip), vehicle: saline): 163 % of control
- T/C (dose: 3.3 mg/kg/injection, schedule: Q01DX001 (ip), vehicle: saline): 153 % of control
- T/C (dose: 5.0 mg/kg/injection, schedule: Q01DX001 (ip), vehicle: saline): 157 % of control and 236 % of control
- T/C (dose: 1.0 micrograms/kg/injection, schedule: Q01DX009 (ip), vehicle: saline): 104 % of control
- T/C (dose: 8.0 micrograms/kg/injection, schedule: Q01DX009 (ip), vehicle: saline): 189 % of control

Structure (SMILES): C#CC(O)C1OC(C)(C)OC1C1COC(C)(C)O1 (configuration not stated)
- T/C [4]: 97 % of control
- T/C (dose: 200.0 mg/kg/injection, schedule: Q04DX003 (ip), vehicle: Klucel (hydroxypropylcellulose) (HPC)): 92 % of control
- T/C (dose: 400.0 mg/kg/injection, schedule: Q04DX003 (ip), vehicle: Klucel (hydroxypropylcellulose) (HPC)): 94 % of control

Structure (SMILES): IC1=CC2CCC(C1)C2 (configuration not stated)
- T/C (dose: 100.0 mg/kg/injection, schedule: Q01DX009 (ip), vehicle: acetone): 109 % of control
- T/C (dose: 200.0 mg/kg/injection, schedule: Q01DX009 (ip), vehicle: acetone): 97 % of control

Structure (SMILES): c1ccc(N=NC(N=Nc2ccccc2)=P(c2ccccc2)(c2ccccc2)c2ccccc2)cc1
- T/C [5]: 97 % of control
- T/C [6]: 108 % of control

Structure (SMILES): COc1c2c(c(OC)c3c(=O)c4ccccc4[nH]c13)OCO2
- T/C (dose: 62.5 mg/kg/injection, schedule: Q01DX001 (ip), vehicle: carboxymethylcellulose (CMC)): 100 % of control
- T/C (dose: 125.0 mg/kg/injection, schedule: Q01DX001 (ip), vehicle: carboxymethylcellulose (CMC)): 97 % of control
- T/C (dose: 250.0 mg/kg/injection, schedule: Q01DX001 (ip), vehicle: carboxymethylcellulose (CMC)): 105 % of control
- T/C (dose: 500.0 mg/kg/injection, schedule: Q01DX001 (ip), vehicle: carboxymethylcellulose (CMC)): 97 % of control

Structure (SMILES): COc1cc(CCN(C)C)cc(OC)c1OC
- T/C (dose: 75.0 mg/kg/injection, schedule: Q01DX001 (ip), vehicle: saline): 95 % of control
- T/C (dose: 150.0 mg/kg/injection, schedule: Q01DX001 (ip), vehicle: saline): 101 % of control
- T/C (dose: 300.0 mg/kg/injection, schedule: Q01DX001 (ip), vehicle: saline): 102 % of control

Structure (SMILES): CC1(C)OC2COC(c3[nH]nc(C(N)=O)c3C(=O)N=[N+]=[N-])C2O1 (configuration not stated)
- T/C (dose: 100.0 mg/kg/injection, schedule: Q01DX005 (ip), vehicle: saline): 101 % of control
- T/C (dose: 200.0 mg/kg/injection, schedule: Q01DX005 (ip), vehicle: saline): 101 % of control

Structure (SMILES): COC(=O)/C=C1\Nc2ccc([N+](=O)[O-])cc2NC1=O
- T/C [7]: 87 % of control
- T/C [5]: 94 % of control
- T/C [6]: 100 % of control

Structure (SMILES): CC(=O)NCC1CCCCC1
- T/C (dose: 25.0 mg/kg/injection, schedule: Q01DX009 (ip), vehicle: Klucel (hydroxypropylcellulose) (HPC)): 98 % of control
- T/C (dose: 25.0 mg/kg/injection, schedule: Q04DX003 (ip), vehicle: Klucel (hydroxypropylcellulose) (HPC)): 100 % of control
- T/C [7]: 92 % of control
- T/C (dose: 50.0 mg/kg/injection, schedule: Q04DX003 (ip), vehicle: Klucel (hydroxypropylcellulose) (HPC)): 102 % of control
- T/C [5]: 110 % of control
- T/C [4]: 105 % of control

Structure (SMILES): CCN(CC)CCNc1ccc(C)c2sc3ccccc3c(=O)c12 (tested in a mixture with another compound)
- T/C (dose: 6.0 mg/kg/injection, schedule: Q01DX009 (ip), vehicle: carboxymethylcellulose (CMC)): 102 % of control
- T/C (dose: 12.0 mg/kg/injection, schedule: Q01DX009 (ip), vehicle: carboxymethylcellulose (CMC)): 98 % of control
- T/C (dose: 17.0 mg/kg/injection, schedule: Q01DX015 (ip), vehicle: saline): 102 % of control
- T/C (dose: 25.0 mg/kg/injection, schedule: Q01DX009 (ip), vehicle: carboxymethylcellulose (CMC)): 109 % of control
- T/C (dose: 26.0 mg/kg/injection, schedule: Q01DX015 (ip), vehicle: carboxymethylcellulose (CMC)): 108 % of control
- T/C (dose: 26.0 mg/kg/injection, schedule: Q01DX015 (ip), vehicle: saline): 101 % of control
- T/C (dose: 35.0 mg/kg/injection, schedule: Q01DX009 (ip), vehicle: saline): 102 % of control
- T/C (dose: 39.0 mg/kg/injection, schedule: Q01DX015 (ip), vehicle: carboxymethylcellulose (CMC)): 110 % of control
- T/C (dose: 40.0 mg/kg/injection, schedule: Q01DX015 (ip), vehicle: saline): 113 % of control and 118 % of control
- T/C (dose: 59.0 mg/kg/injection, schedule: Q01DX015 (ip), vehicle: carboxymethylcellulose (CMC)): 116 % of control
- T/C (dose: 75.0 mg/kg/injection, schedule: Q01DX009 (ip), vehicle: saline): 104 % of control
- T/C (dose: 89.0 mg/kg/injection, schedule: Q01DX015 (ip), vehicle: saline): 202 % of control
- T/C (dose: 133.0 mg/kg/injection, schedule: Q01DX009 (ip), vehicle: carboxymethylcellulose (CMC)): 123 % of control
- T/C (dose: 175.0 mg/kg/injection, schedule: Q01DX001 (ip), vehicle: saline): 100 % of control
- T/C (dose: 200.0 mg/kg/injection, schedule: Q01DX015 (ip), vehicle: saline): 112 % of control
- T/C (dose: 265.0 mg/kg/injection, schedule: Q01DX001 (ip), vehicle: saline): 105 % of control
- T/C (dose: 300.0 mg/kg/injection, schedule: Q01DX015 (ip), vehicle: carboxymethylcellulose (CMC)): 91 % of control
- T/C (dose: 400.0 mg/kg/injection, schedule: Q01DX001 (ip), vehicle: saline): 122 % of control

Structure (SMILES): Cc1ccc2nn(-c3ccc(O)cc3)[n+]([O-])c2c1
- T/C [1]: 102 % of control
- T/C [2]: 107 % of control
- T/C [3]: 93 % of control

Structure (SMILES): NC(=O)N/N=C/C(=O)O
- T/C (dose: 100.0 mg/kg/injection, schedule: Q04DX002 (ip), vehicle: Klucel (hydroxypropylcellulose) (HPC)): 96 % of control
- T/C (dose: 200.0 mg/kg/injection, schedule: Q04DX002 (ip), vehicle: Klucel (hydroxypropylcellulose) (HPC)): 104 % of control
- T/C (dose: 400.0 mg/kg/injection, schedule: Q04DX002 (ip), vehicle: Klucel (hydroxypropylcellulose) (HPC)): 104 % of control
